In US10233183B1, “13-hydroxysparteine cinnamic acid derivatives with anti-tumor activities and a method of preparing the same” (SHAANXI UNIVERSITY OF SCIENCE AND TECHNOLOGY, priority 2018, dated 2019):

How the values were obtained:
Type in all cases: cell-based
[1] = system: non-small cell lung cancer cells (H1975); experiment: MTT tumor cell proliferation inhibition test, H1975; details: Homo sapiens, NCI-H1975, 48 hours treatment, read-out: Half Inhibitory Concentration IC50, H1975
Description: (§1) The compounds of the present invention were subjected to tumor cell proliferation inhibition test, and conventional MTT method was used. Cell lines used: non-small cell lung cancer cells (H1975), human hepatoma cells (HepG2), human glioma cells (U251), human gastric adenocarcinoma cells (AGS), human breast cancer cells (1590). The culture medium was DMEM+15% NBS+double antibody. […] Antitumor cytarabine (Ara-C) was used as control solution, prepared under the same condition. Cell culture: adherent growth Tumor cells were cultured in 1640 medium containing 10% inactivated neonatal bovine serum and penicillin, streptomycin (1 million U/L), placed in carbon dioxide incubator at 37° C., 5% CO2, and saturated humidity. Cells were treated serially passaged 2-3 times. The first culture was washed with PBS 2 times, and digested with trypsin. Fresh culture medium was added evenly, cells were adjusted to a appropriate concentration and transferred into a new culture flask. Cell in an exponential phase were chosen for the tests. MTT Assay for Cell Viability and IC50 Determination: Experimental Principle: Living cells mitochondria in the dehydrogenase can reduce yellow MTT to water-insoluble blue-violet product MT (MTT formazan), deposited in the cells. The amount of production is proportional to the number of living cells. […] DMSO can dissolve blue violet crystals, and the color depth is proportional to the amount contained, so the absorbance measured by the microplate reader can reflect the cell viability. Methods: The exponential phase cells were digested and counted and seeded in 96-well plates at a density of 2×10^4/mL at 100 μl per well. […] After another 4 hours, the supernatant was discarded, and 100 μl of DMSO was added to each well. After mixing, the absorbance was measured at 570 nm using a microplate reader. An IC50 calculation software was used to determine the half inhibitory concentration (IC50).

[2] = system: human hepatoma cells (HepG2); experiment: MTT tumor cell proliferation inhibition test, HepG2; details: 48 hours treatment, read-out: Half Inhibitory Concentration IC50, HepG2
Description: as §1

[3] = system: human glioma cells (U251); experiment: MTT tumor cell proliferation inhibition test, U251; details: U-251, 48 hours treatment, read-out: Half Inhibitory Concentration IC50, U251
Description: as §1

[4] = system: human gastric adenocarcinoma cells (AGS); experiment: MTT tumor cell proliferation inhibition test, AGS; details: 48 hours treatment, read-out: Half Inhibitory Concentration IC50, AGS
Description: as §1

[5] = system: human breast cancer cells (1590); experiment: MTT tumor cell proliferation inhibition test, 1590; details: 48 hours treatment, 1590 cells, read-out: Half Inhibitory Concentration IC50, 1590
Description: as §1

different cell lines = experiment: MTT tumor cell proliferation inhibition test, overall verdict; details: summary in words of Table 1, different cell lines
Description: as §1

| Compound | IC50 [1] | IC50 [2] | IC50 [3] | IC50 [4] | IC50 [5] | in vitro antitumor activities (different cell lines) |
| --- | --- | --- | --- | --- | --- | --- |
| COc1cc(/C=C\C(=O)OC2CCN3[C@@H]4C[C@@H](C[C@@H]3C2)N2CCCC[C@@H]2C4)ccc1O (stereo partly drawn) [Compound F, (Z)-(6S,7aR,13S,14aR)-tetradecahydro-6,13-methanodipyrido[1,2-a:1′,2′-e][1,5]diazocin-2-yl 3-(4-hydroxy-3-methoxyphenyl)acrylate] | > 100 µM | > 100 µM | > 100 µM | > 100 µM | 88.6 ± 2.12 µM | – |
| O=C(/C=C\c1cccc(O)c1)OC1CCN2[C@@H]3C[C@@H](C[C@@H]2C1)N1CCCC[C@@H]1C3 (stereo partly drawn) [Compound C, (Z)-(6S,7aR,13S,14aR)-tetradecahydro-6,13-methanodipyrido[1,2-a:1′,2′-e][1,5]diazocin-2-yl 3-(3-hydroxyphenyl)acrylate] | 23.7 ± 2.37 µM | 73.55 ± 0.49 µM | 5.49 ± 1.98 µM | 26.3 ± 1.48 µM | 43.2 ± 0.95 µM | good in vitro antitumor activities |
| O=C(/C=C\c1ccc(O)c(O)c1)OC1CCN2[C@@H]3C[C@@H](C[C@@H]2C1)N1CCCC[C@@H]1C3 (stereo partly drawn) [Compound E, (Z)-(6S,7aR,13S,14aR)-tetradecahydro-6,13-methanodipyrido[1,2-a:1′,2′-e][1,5]diazocin-2-yl 3-(3,4-dihydroxyphenyl)acrylate] | 43.1 ± 1.24 µM | > 100 µM | 42.2 ± 0.88 µM | > 100 µM | 36.2 ± 1.98 µM | good in vitro antitumor activities |
| Cc1cccc(/C=C\C(=O)OC2CCN3[C@@H]4C[C@@H](C[C@@H]3C2)N2CCCC[C@@H]2C4)c1 (stereo partly drawn) [Compound J, (Z)-(6S,7aR,13S,14aR)-tetradecahydro-6,13-methanodipyrido[1,2-a:1′,2′-e][1,5]diazocin-2-yl 3-(m-tolyl)acrylate] | 65 ± 1.89 µM | 88.5 ± 1.26 µM | 74.6 ± 2.94 µM | > 100 µM | 65.43 ± 0.47 µM | – |
| O=C(/C=C\c1ccc(Cl)cc1)OC1CCN2[C@@H]3C[C@@H](C[C@@H]2C1)N1CCCC[C@@H]1C3 (stereo partly drawn) [Compound M, (Z)-(6S,7aR,13S,14aR)-tetradecahydro-6,13-methanodipyrido[1,2-a:1′,2′-e][1,5]diazocin-2-yl 3-(4-chlorophenyl)acrylate] | > 100 µM | 26.8 ± 1.24 µM | 45.9 ± 1.82 µM | 55.54 ± 0.044 µM | 10.6 ± 1.33 µM | good in vitro antitumor activities |
| O=C(/C=C\c1ccccc1)OC1CCN2[C@@H]3C[C@@H](C[C@@H]2C1)N1CCCC[C@@H]1C3 (stereo partly drawn) [Compound A, (Z)-(6S,7aR,13S,14aR)-tetradecahydro-6,13-methanodipyrido[1,2-a:1′,2′-e][1,5]diazocin-2-yl 3-phenylacrylate] | 16.9 ± 1.36 µM | 36.6 ± 3.01 µM | > 100 µM | 20.3 ± 1.12 µM | 32 ± 1.69 µM | good in vitro antitumor activities |
| Cc1ccc(/C=C\C(=O)OC2CCN3[C@@H]4C[C@@H](C[C@@H]3C2)N2CCCC[C@@H]2C4)cc1 (stereo partly drawn) [Compound H, (Z)-(6S,7aR,13S,14aR)-tetradecahydro-6,13-methanodipyrido[1,2-a:1′,2′-e][1,5]diazocin-2-yl 3-(p-tolyl)acrylate] | 29.9 ± 1.59 µM | 51.1 ± 1.44 µM | 75.4 ± 0.897 µM | 35.7 ± 2.58 µM | > 100 µM | good in vitro antitumor activities |
| Nc1ccn([C@@H]2O[C@H](CO)[C@@H](O)[C@@H]2O)c(=O)n1 [Ara-C, cytarabine, reference compound] | 19.2 ± 0.39 µM | 20.6 ± 0.54 µM | 39.2 ± 0.54 µM | > 100 µM | 76.3 ± 2.48 µM | – |
| Cc1cc(/C=C\C(=O)OC2CCN3[C@@H]4C[C@@H](C[C@@H]3C2)N2CCCC[C@@H]2C4)ccc1O (stereo partly drawn) [Compound I, (Z)-(6S,7aR,13S,14aR)-tetradecahydro-6,13-methanodipyrido[1,2-a:1′,2′-e][1,5]diazocin-2-yl 3-(4-hydroxy-3-methylphenyl)acrylate] | > 100 µM | 58.7 ± 1.78 µM | 66.9 ± 1.84 µM | 32.59 ± 0.29 µM | > 100 µM | good in vitro antitumor activities |
| O=C(/C=C\c1ccc(O)cc1)OC1CCN2[C@@H]3C[C@@H](C[C@@H]2C1)N1CCCC[C@@H]1C3 (stereo partly drawn) [Compound B, (Z)-(6S,7aR,13S,14aR)-tetradecahydro-6,13-methanodipyrido[1,2-a:1′,2′-e][1,5]diazocin-2-yl 3-(4-hydroxyphenyl)acrylate] | > 100 µM | 53.69 ± 0.34 µM | 74.98 ± 0.49 µM | > 100 µM | > 100 µM | – |
| Cc1ccccc1/C=C\C(=O)OC1CCN2[C@@H]3C[C@@H](C[C@@H]2C1)N1CCCC[C@@H]1C3 (stereo partly drawn) [Compound K, (Z)-(6S,7aR,13S,14aR)-tetradecahydro-6,13-methanodipyrido[1,2-a:1′,2′-e][1,5]diazocin-2-yl 3-(o-tolyl)acrylate] | 89.6 ± 1.34 µM | > 100 µM | > 100 µM | 69.81 ± 0.06 µM | > 100 µM | – |
| COc1cc(/C=C\C(=O)OC2CCN3[C@@H]4C[C@@H](C[C@@H]3C2)N2CCCC[C@@H]2C4)cc(OC)c1O (stereo partly drawn) [Compound G, (Z)-(6S,7aR,13S,14aR)-tetradecahydro-6,13-methanodipyrido[1,2-a:1′,2′-e][1,5]diazocin-2-yl 3-(4-hydroxy-3,5-dimethoxyphenyl)acrylate] | 55.48 ± 0.48 µM | > 100 µM | 37 ± 1.24 µM | 59.4 ± 0.97 µM | > 100 µM | good in vitro antitumor activities |
